Read-outs that look alike come from different tables or passages of the source.
Key:
[1] = target: PI3Kγ (p110γ) Recombinant Human Protein (Homo sapiens (Human), UniProt P48736); test: PI3K-γ Scintillation Proximity Assay; type: biochemical; details: 20 μM PIP2, 2 μM ATP, SPA
From the text: Example B. PI3K-γ Scintillation Proximity Assay Materials: [γ-^33P]ATP (10 mCi/mL) and Wheat Germ Agglutinin (WGA) YSi SPA Scintillation Beads was purchased from Perkin Elmer (Waltham, MA). Lipid kinase substrate, D-myo-Phosphatidylinositol 4,5-bisphosphate (PtdIns(4,5)P2)D (+)-sn-1,2-di-O-octanoylglyceryl, 3-O-phospho linked (PIP2), CAS 204858-53-7, was purchased from Echelon Biosciences (Salt Lake City, UT). PI3Kγ (p110γ) Recombinant Human Protein was purchased from Life technology (Grand Island, NY). ATP, MgCl2, DTT, EDTA, MOPS and CHAPS were purchased from Sigma Aldrich (St. Louis, MO). The kinase reaction was conducted in polystyrene 384-well Greiner Bio-one white plate from Thermo Fisher Scientific in a final volume of 25 μL. Inhibitors were first diluted serially in DMSO and added to the plate wells before the addition of other reaction components. The final concentration of DMSO in the assay was 2%. The PI3Kγ assay was carried out at room temperature in 20 mM MOPS, pH 6.7, 10 mM MgCl2, 5 mM DTT and CHAPS 0.03%. Reactions were initiated by the addition of ATP, the final reaction mixture consisted of 20 μM PIP2, 2 μM ATP, 0.5 μCi [γ-^33P] ATP, 13 nM PI3Kγ. Reactions were incubated for 120 min and terminated by the addition of 40 μL SPA beads suspended in quench buffer: 163 mM potassium phosphate pH 7.8, 20% glycerol, 25 mM EDTA. The final concentration of SPA beads is 1.0 mg/mL. After the plate sealing, plates were shaken overnight at room temperature and centrifuged at 1500 rpm for 10 min, the radioactivity of the product was determined by scintillation counting on Topcount (Perkin-Elmer). IC50 determination was performed by fitting the curve of percent of the solvent control activity versus the log of the inhibitor concentration using the GraphPad Prism 6.0 software.

[2] = target: PI3Kδ (p110δ/p85α) Recombinant Human Protein (Homo sapiens (Human), UniProt O00329); test: PI3Kδ Scintillation Proximity Assay; type: biochemical; details: 20 μM PIP2, 2 μM ATP, SPA
From the text: Example C. PI3Kδ Scintillation Proximity Assay Materials: [γ-^33P]ATP (10 mCi/mL) and Wheat Germ Agglutinin (WGA) YSi SPA Scintillation Beads was purchased from Perkin Elmer (Waltham, MA). Lipid kinase substrate, D-myo-Phosphatidylinositol 4,5-bisphosphate (PtdIns(4,5)P2)D (+)-sn-1,2-di-O-octanoylglyceryl, 3-O-phospho linked (PIP2), CAS 204858-53-7, was purchased from Echelon Biosciences (Salt Lake City, UT). PI3Kδ (p110δ/p85α) Recombinant Human Protein was purchased from Eurofins (St Charles, MO). ATP, MgCl2, DTT, EDTA, MOPS and CHAPS were purchased from Sigma Aldrich (St. Louis, MO). The kinase reaction was conducted in polystyrene 384-well Greiner Bio-one white plate from Thermo Fisher Scientific in a final volume of 25 μL. Inhibitors were first diluted serially in DMSO and added to the plate wells before the addition of other reaction components. The final concentration of DMSO in the assay was 2%. The PI3Kδ assay was carried out at room temperature in 20 mM MOPS, pH 6.7, 10 mM MgCl2, 5 mM DTT and CHAPS 0.03%. Reactions were initiated by the addition of ATP, the final reaction mixture consisted of 20 μM PIP2, 2 μM ATP, 0.5 μCi [γ-^33P] ATP, 3.4 nM PI3Kδ. Reactions were incubated for 120 min and terminated by the addition of 40 μL SPA beads suspended in quench buffer: 163 mM potassium phosphate pH 7.8, 20% glycerol, 25 mM EDTA. The final concentration of SPA beads is 1.0 mg/mL. After the plate sealing, plates were shaken overnight at room temperature and centrifuged at 1500 rpm for 10 min, the radioactivity of the product was determined by scintillation counting on Topcount (PerkinElmer). IC50 determination was performed by fitting the curve of percent of the solvent control activity versus the log of the inhibitor concentration using the GraphPad Prism 6.0 software.

[3] = tested on: Phosphorylated Ribosomal Protein S6 (RPS6) in THP-1 cells; test: THP-1 RPS6 ELISA Assay; type: cell-based, Human; details: serum starved, 2 hours compound, 10 nM MCP-1 for 15 minutes, Phospho-RPS6 ELISA, read-out: PI3Kγ_THP1_RPS6_ELISA IC50
Experimental: Example A. THP-1 RPS6 ELISA Assay
To measure the Phosphorylated Ribosomal Protein S6 (RPS6) in cell lysates, THP-1 cells (Human Acute Monocytic Leukemia) are purchased from ATCC (Manassas, VA) and maintained in RPMI with 10% FBS (Gibco/Life Technologies, Carlsbad, CA). For the assay, THP-1 cells are serum starved overnight in RPMI, then plated in RPMI (2×10^5 cells/well in 90 μL) into 96-well flat-bottom tissue culture treated plates (Corning, Corning, NY), in the presence or absence of a concentration range of test compounds. Covered plates are incubated for 2 hours at 37° C., 5% CO2 then treated with or without 10 nM MCP-1(MYBioSource, San Diego, CA) for 15 minutes at 37° C., 5% CO2. Plates are centrifuged at 1600 RPM and supernatants are removed. Cells are lysed in Lysis Buffer (Cell Signaling, Danvers, MA) with Protease Inhibitor (Calbiochem/EMD, Germany), PMSF (Sigma, St Louis MO), HALTS (Thermo Fisher, Rockford, IL) for 30 min on wet ice. Cell lysates are frozen at −80° C. before testing. The lysates are tested in the Human/Mouse/Rat Phospho-RPS6 ELISA (R&D Systems, Inc. Minn, MN). The plate is measured using a microplate reader (SpectraMax M5—Molecular Devices, LLC Sunnyvale, CA) set to 450 nm with a wavelength correction of 540. IC50 determination is performed by fitting the curve of inhibitor percent inhibition versus the log of the inhibitor concentration using the GraphPad Prism 5.0 software.

Sequence of PI3Kδ (p110δ/p85α) Recombinant Human Protein (O00329 whole entry): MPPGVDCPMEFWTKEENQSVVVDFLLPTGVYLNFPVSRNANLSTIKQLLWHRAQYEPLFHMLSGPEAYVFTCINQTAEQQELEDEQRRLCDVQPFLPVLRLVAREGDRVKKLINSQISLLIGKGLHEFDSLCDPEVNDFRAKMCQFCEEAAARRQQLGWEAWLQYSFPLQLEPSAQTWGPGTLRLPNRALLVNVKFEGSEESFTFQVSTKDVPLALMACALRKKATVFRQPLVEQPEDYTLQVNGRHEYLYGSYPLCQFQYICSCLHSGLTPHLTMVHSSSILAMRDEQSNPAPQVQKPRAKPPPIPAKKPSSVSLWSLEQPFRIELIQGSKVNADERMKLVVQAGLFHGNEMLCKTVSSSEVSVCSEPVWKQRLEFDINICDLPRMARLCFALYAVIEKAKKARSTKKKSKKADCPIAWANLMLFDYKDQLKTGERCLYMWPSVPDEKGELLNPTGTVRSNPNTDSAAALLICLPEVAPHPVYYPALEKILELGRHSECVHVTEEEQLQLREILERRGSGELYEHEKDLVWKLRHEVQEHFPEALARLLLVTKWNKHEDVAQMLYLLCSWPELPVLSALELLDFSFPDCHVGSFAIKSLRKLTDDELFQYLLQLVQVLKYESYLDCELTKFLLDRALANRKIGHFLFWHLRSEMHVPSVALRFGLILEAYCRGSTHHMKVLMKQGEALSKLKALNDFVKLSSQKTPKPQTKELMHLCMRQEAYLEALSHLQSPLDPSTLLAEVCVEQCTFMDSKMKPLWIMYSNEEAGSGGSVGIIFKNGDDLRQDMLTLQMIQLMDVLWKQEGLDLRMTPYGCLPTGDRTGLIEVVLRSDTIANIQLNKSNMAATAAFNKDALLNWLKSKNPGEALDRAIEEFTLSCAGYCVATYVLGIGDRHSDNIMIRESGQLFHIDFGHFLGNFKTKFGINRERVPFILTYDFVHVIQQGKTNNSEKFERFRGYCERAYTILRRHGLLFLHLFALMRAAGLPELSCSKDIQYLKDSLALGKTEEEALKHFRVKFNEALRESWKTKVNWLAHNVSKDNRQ
Sequence of PI3Kδ (p110δ/p85α) Recombinant Human Protein (P27986 whole entry partner): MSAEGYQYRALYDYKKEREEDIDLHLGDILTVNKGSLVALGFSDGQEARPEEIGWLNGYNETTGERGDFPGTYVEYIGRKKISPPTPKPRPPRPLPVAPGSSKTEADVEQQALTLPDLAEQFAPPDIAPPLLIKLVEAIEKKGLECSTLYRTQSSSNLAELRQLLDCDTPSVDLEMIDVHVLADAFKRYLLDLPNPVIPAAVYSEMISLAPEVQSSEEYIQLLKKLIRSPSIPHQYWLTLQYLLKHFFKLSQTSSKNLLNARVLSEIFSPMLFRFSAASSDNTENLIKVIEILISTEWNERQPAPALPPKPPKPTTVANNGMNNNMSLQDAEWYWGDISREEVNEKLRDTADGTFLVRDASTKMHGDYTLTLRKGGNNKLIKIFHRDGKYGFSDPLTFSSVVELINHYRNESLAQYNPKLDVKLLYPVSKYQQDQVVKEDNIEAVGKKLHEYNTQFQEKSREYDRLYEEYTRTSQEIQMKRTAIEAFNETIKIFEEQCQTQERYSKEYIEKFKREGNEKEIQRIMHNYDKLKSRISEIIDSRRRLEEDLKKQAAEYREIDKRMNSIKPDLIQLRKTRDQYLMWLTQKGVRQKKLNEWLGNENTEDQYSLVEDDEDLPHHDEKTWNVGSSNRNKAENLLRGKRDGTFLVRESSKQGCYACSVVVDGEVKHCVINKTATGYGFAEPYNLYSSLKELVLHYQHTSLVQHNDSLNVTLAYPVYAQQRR
Sequence of PI3Kγ (p110γ) Recombinant Human Protein (P48736 whole entry): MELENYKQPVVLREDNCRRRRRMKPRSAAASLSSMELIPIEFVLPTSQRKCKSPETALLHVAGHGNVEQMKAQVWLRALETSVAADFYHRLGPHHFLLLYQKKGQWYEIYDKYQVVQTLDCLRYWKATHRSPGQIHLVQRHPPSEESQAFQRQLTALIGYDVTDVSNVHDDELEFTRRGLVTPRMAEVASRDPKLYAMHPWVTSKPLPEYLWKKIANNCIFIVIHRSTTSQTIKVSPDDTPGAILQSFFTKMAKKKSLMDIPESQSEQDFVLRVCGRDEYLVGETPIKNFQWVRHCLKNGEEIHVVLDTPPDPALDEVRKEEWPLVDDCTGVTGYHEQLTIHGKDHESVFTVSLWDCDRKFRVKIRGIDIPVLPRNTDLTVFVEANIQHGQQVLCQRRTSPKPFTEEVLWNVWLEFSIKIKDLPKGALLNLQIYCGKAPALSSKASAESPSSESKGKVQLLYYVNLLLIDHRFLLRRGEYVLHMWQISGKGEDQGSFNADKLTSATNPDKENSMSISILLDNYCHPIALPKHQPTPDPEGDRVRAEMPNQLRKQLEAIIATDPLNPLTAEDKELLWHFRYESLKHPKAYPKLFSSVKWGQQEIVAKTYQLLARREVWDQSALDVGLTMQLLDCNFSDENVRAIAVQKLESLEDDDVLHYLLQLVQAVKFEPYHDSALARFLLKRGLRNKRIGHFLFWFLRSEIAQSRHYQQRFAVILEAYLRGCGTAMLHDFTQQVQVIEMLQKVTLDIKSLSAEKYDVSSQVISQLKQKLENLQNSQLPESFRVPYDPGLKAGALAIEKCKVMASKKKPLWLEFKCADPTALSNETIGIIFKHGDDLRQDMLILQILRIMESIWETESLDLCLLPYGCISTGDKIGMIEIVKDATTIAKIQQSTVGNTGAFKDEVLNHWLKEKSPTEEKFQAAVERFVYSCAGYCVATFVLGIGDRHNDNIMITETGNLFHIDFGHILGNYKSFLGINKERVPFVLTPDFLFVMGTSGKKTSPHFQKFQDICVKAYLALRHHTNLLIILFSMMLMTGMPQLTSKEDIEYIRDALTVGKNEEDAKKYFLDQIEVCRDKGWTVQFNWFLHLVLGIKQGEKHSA

| SMILES | IC50 [1] | IC50 [2] | IC50 ([3]; Homo sapiens) | IC50 [3] |
| --- | --- | --- | --- | --- |
| Cc1ccc([C@](O)(CO)C(F)F)cc1-c1cnc(N)c(C(=O)NC(C)C)n1 [Example 46, (S)-3-Amino-6-(5-(1,1-difluoro-2,3-dihydroxypropan-2-yl)-2-methylphenyl)-N-isopropylpyrazine-2-carboxamide] | ≤ 100 nM | ≤ 100 nM | – | – |
| Cc1ccc([C@](O)(CO)C(F)F)cc1-c1cnc(N)c(C(=O)N[C@@H](C)CO)n1 (single isomer, unassigned) [Example 43] | – | 100 to 500 nM | 100 to 500 nM | – |
| Cc1ccc([C@](O)(CO)C(F)F)cc1-c1cnc(N)c(C(=O)N2CCC[C@@H]2CO)n1 [Example 45, (3-Amino-6-(5-((S)-1,1-difluoro-2,3-dihydroxypropan-2-yl)-2-methylphenyl)pyrazin-2-yl)((R)-2-(hydroxymethyl)pyrrolidin-1-yl)methanone] | – | 500 to 2000 nM | – | 100 to 500 nM |
| [2H]C([2H])([2H])c1ccc(C(O)(C(C)O)C(F)(F)F)cc1-c1cnc(N)c(C(=O)NC2CCOCC2)n1 (single isomer, unassigned) [Example 19, 3-Amino-6-(2-(methyl-d3)-5-(1,1,1-trifluoro-2,3-dihydroxybutan-2-yl)phenyl)-N-(tetrahydro-2H-pyran-4-yl)pyrazine-2-carboxamide] | – | – | 100 to 500 nM | – |
| Cc1ccc(C(O)(CO)C(F)(F)F)cc1-c1cnc(N)c(-c2cn[nH]c2)n1 (stereo not shown) [Example 3, 2-(3-(5-Amino-6-(1H-pyrazol-4-yl)pyrazin-2-yl)-4-methylphenyl)-3,3,3-trifluoropropane-1,2-diol] | ≤ 100 nM | ≤ 100 nM | – | – |
| Cc1ccc(C(O)(CO)C(F)(F)F)cc1-c1cnc(N)c(C2CC(C(=O)N3CC(O)C3)C2)n1 (single isomer, unassigned) [Example 24, (3-(3-Amino-6-(2-methyl-5-(1,1,1-trifluoro-2,3-dihydroxypropan-2-yl)phenyl)pyrazin-2-yl)cyclobutyl)(3-hydroxyazetidin-1-yl)methanone] | – | – | 100 to 500 nM | – |
| [2H]C([2H])([2H])c1ccc([C@](O)(CO)C(F)F)cc1-c1cnc(N)c(C(=O)N[C@@H]2CCCC[C@H]2O)n1 [Example 39, 3-Amino-6-(5-((S)-1,1-difluoro-2,3-dihydroxypropan-2-yl)-2-(methyl-d3)phenyl)-N-((1R,2R)-2-hydroxycyclohexyl)pyrazine-2-carboxamide] | – | – | 100 to 500 nM | – |
| Cc1cc(-c2nc(-c3cc(C(O)(CO)C(F)(F)F)ccc3C)cnc2N)on1 (stereo not shown) [Example 4, 2-(3-(5-Amino-6-(3-methylisoxazol-5-yl)pyrazin-2-yl)-4-methylphenyl)-3,3,3-trifluoropropane-1,2-diol] | ≤ 100 nM | ≤ 100 nM | – | – |
| Cc1ccc(C(O)(C(C)(C)O)C(F)(F)F)cc1-c1cnc(N)c(C(=O)NC2CCOCC2)n1 (stereo not shown) [Example 22, 3-Amino-6-(2-methyl-5-(1,1,1-trifluoro-2,3-dihydroxy-3-methylbutan-2-yl)phenyl)-N-(tetrahydro-2H-pyran-4-yl)pyrazine-2-carboxamide] | – | 100 to 500 nM | – | – |
| Cc1ccc(C(O)(CO)C(F)(F)F)cc1-c1cnc(N)c(-n2ccnn2)n1 (stereo not shown) [Example 13, 2-(3-(5-Amino-6-(1H-1,2,3-triazol-1-yl)pyrazin-2-yl)-4-methylphenyl)-3,3,3-trifluoropropane-1,2-diol] | ≤ 100 nM | ≤ 100 nM | – | – |
| [2H]C([2H])([2H])c1ccc([C@](O)(CO)C(F)F)cc1-c1cnc(N)c(C(=O)N[C@H]2CCCC[C@@H]2O)n1 [Example 38, 3-Amino-6-(5-((S)-1,1-difluoro-2,3-dihydroxypropan-2-yl)-2-(methyl-d3)phenyl)-N-((1S,2S)-2-hydroxycyclohexyl)pyrazine-2-carboxamide] | – | – | 100 to 500 nM | – |
| Cc1ccc(C(O)(CO)C(F)(F)F)cc1-c1cnc(N)c(-c2ccns2)n1 (stereo not shown) [Example 6, 2-(3-(5-Amino-6-(isothiazol-5-yl)pyrazin-2-yl)-4-methylphenyl)-3,3,3-trifluoropropane-1,2-diol] | ≤ 100 nM | ≤ 100 nM | – | – |
| Cc1ccc(C(O)(CO)C(F)(F)F)cc1-c1cnc(N)c(-c2cnco2)n1 (stereo not shown) [Example 11, 2-(3-(5-Amino-6-(oxazol-5-yl)pyrazin-2-yl)-4-methylphenyl)-3,3,3-trifluoropropane-1,2-diol] | ≤ 100 nM | ≤ 100 nM | – | – |
| Cc1cc(-c2nc(-c3cc(C(O)(CO)C(F)(F)F)ccc3C)cnc2N)sn1 (stereo not shown) [Example 7, 2-(3-(5-amino-6-(3-methylisothiazol-5-yl)pyrazin-2-yl)-4-methylphenyl)-3,3,3-trifluoropropane-1,2-diol] | ≤ 100 nM | ≤ 100 nM | – | – |
| Cc1ccc(C(O)(CO)C(F)(F)F)cc1-c1cnc(N)c(-c2cnsc2)n1 (stereo not shown) [Example 5, 2-(3-(5-Amino-6-(isothiazol-4-yl)pyrazin-2-yl)-4-methylphenyl)-3,3,3-trifluoropropane-1,2-diol] | ≤ 100 nM | ≤ 100 nM | – | – |
| [2H]C([2H])([2H])c1ccc([C@](O)(CO)C(F)(F)F)cc1-c1cnc(N)c(C(=O)N[C@H](C)CO)n1 [Example 36, 3-Amino-N-((R)-1-hydroxypropan-2-yl)-6-(2-(methyl-d3)-5-((S)-1,1,1-trifluoro-2,3-dihydroxypropan-2-yl)phenyl)pyrazine-2-carboxamide] | – | – | 100 to 500 nM | – |
| [2H]C([2H])([2H])c1ccc(C(O)(C(O)C(F)(F)F)C(F)(F)F)cc1-c1cnc(N)c(-c2c[nH]nc2C)n1 (stereo not shown) [Example 20, 2-(3-(5-Amino-6-(3-methyl-1H-pyrazol-4-yl)pyrazin-2-yl)-4-(methyl-d3)phenyl)-1,1,1,4,4,4-hexafluorobutane-2,3-diol] | – | 100 to 500 nM | – | – |
| Cc1ncc(-c2nc(-c3cc(C(O)(CO)C(F)(F)F)ccc3C)cnc2N)s1 (stereo not shown) [Example 10, 2-(3-(5-Amino-6-(2-methylthiazol-5-yl)pyrazin-2-yl)-4-methvlphenyl)-3,3,3-trifluoropropane-1,2-diol] | ≤ 100 nM | ≤ 100 nM | – | – |
| Cc1ccc(C(O)(CO)C(F)(F)F)cc1-c1cnc(N)c(-c2cnn(C)c2)n1 (stereo not shown) [Example 2, 2-(3-(5-Amino-6-(1-methyl-1H-pyrazol-4-yl)pyrazin-2-yl)-4-methylphenyl)-3,3,3-trifluoropropane-1,2-diol] | ≤ 100 nM | ≤ 100 nM | – | – |

Reference: patent publication US12365668B2, “Aminopyrazine diol compounds as PI3K-y inhibitors” (Incyte Corporation, priority 2018, dated 2025)
